One assay concerns glutathione. Particulars: supplementation, two weeks; cited from earlier work.
The test system of a further assay is NAD. As to conditions: nicotinamide supplementation; one study; cited from earlier work.
The subject of assay [1] is volunteers who experience all symptoms of the alcohol reaction. The experiment in a line: Studies in individuals (Example 5): symptoms of the alcohol reaction after two standard alcohol beverages. Type of assay: in vivo, human. As to conditions: Subject 4; 1500 mg daily for two weeks + dose one hour before two standard alcohol beverages. The method, then:
In order to evaluate the efficacy of certain embodiments of the invention, subjects took various forms of the supplements daily for two weeks. The subjects then consumed two standard alcohol beverages and their symptoms were evaluated. One hour prior to drinking the alcohol beverages, the subjects also consumed another dose of the formulation. Overt physical symptoms and self-reported physical symptoms were used as assessments for the alcohol reaction. These experimental tests include eleven subjects. All experimental subjects were unpaid volunteers who experience all symptoms of the alcohol reaction. The following symptoms were assessed: facial redness, heart rate, self-evaluated body temperature, headache, nausea, and general physical discomfort. These are symptoms of the alcohol reaction that have all been directly linked with an increase in blood acetaldehyde.

On to `O=C1O[C@H]([C@@H](O)CO)C(O)=C1O` [Vitamin C], for which the “increase levels of glutathione” value in the assay with glutathione is 50%.
In the case of `NC(=O)c1cccnc1` [nicotinamide], the “raising NAD concentrations” value in the assay with NAD is 24 fold. In addition, in assay [1], the facial redness entry is “reductions” and the heart rate result was “reductions”.

The values above are taken from US20160346266A1, “REDUCTION OR PREVENTION OF ALCOHOL REACTION WITH DIETARY SUPPLEMENTS” (NOGLO LLC, priority 2012, published 2016).
